Source: PubChem BioAssay AID248 (DTP/NCI, 2004)
Values joined by “and” are separate entries in the source; they are usually repeats but may differ in a detail not shown here. Equal values may be shown once. Inconclusive results and toxic doses are left out. Cut-off read from the data, not from the text of the source: active = T/C of 150% or more; inactive = T/C below 125%.

System: L1210 leukemia ip in BDF1 mice, survival T/C
Assay: NCI In Vivo Anticancer Drug Screen. Data for tumor model L1210 Leukemia (intraperitoneal) in B6D2F1 (BDF1) mice
Conditions: endpoint: mean survival time, higher = longer survival
Outline: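 Survival endpoint. Drug-treated group vs vehicle group, expressed as T divided by C. Tumor passaged by transplantation.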

[1] = dose: 100.0 mg/kg/injection, schedule: Q04DX002 (ip), vehicle: Klucel (hydroxypropylcellulose) (HPC)
[2] = dose: 200.0 mg/kg/injection, schedule: Q04DX002 (ip), vehicle: Klucel (hydroxypropylcellulose) (HPC)
[3] = dose: 400.0 mg/kg/injection, schedule: Q04DX002 (ip), vehicle: Klucel (hydroxypropylcellulose) (HPC)
[4] = dose: 100.0 mg/kg/injection, schedule: Q01DX009 (ip), vehicle: saline with Tween-80
[5] = dose: 200.0 mg/kg/injection, schedule: Q01DX009 (ip), vehicle: saline with Tween-80
[6] = dose: 100.0 mg/kg/injection, schedule: Q01DX001 (ip), vehicle: Klucel (hydroxypropylcellulose) (HPC)
[7] = dose: 100.0 mg/kg/injection, schedule: Q01DX009 (ip), vehicle: Klucel (hydroxypropylcellulose) (HPC)
[8] = dose: 100.0 mg/kg/injection, schedule: Q04DX003 (ip), vehicle: Klucel (hydroxypropylcellulose) (HPC)
[9] = dose: 200.0 mg/kg/injection, schedule: Q01DX001 (ip), vehicle: Klucel (hydroxypropylcellulose) (HPC)
[10] = dose: 200.0 mg/kg/injection, schedule: Q01DX009 (ip), vehicle: Klucel (hydroxypropylcellulose) (HPC)
[11] = dose: 200.0 mg/kg/injection, schedule: Q04DX003 (ip), vehicle: Klucel (hydroxypropylcellulose) (HPC)
[12] = dose: 400.0 mg/kg/injection, schedule: Q01DX001 (ip), vehicle: Klucel (hydroxypropylcellulose) (HPC)
[13] = dose: 400.0 mg/kg/injection, schedule: Q01DX009 (ip), vehicle: Klucel (hydroxypropylcellulose) (HPC)
[14] = dose: 400.0 mg/kg/injection, schedule: Q04DX003 (ip), vehicle: Klucel (hydroxypropylcellulose) (HPC)
[15] = dose: 100.0 mg/kg/injection, schedule: Q01DX001 (ip), vehicle: saline
[16] = dose: 200.0 mg/kg/injection, schedule: Q01DX001 (ip), vehicle: saline
[17] = dose: 400.0 mg/kg/injection, schedule: Q01DX001 (ip), vehicle: saline

Measured: T/C

Nc1ccc(Nc2ccc([N+](=O)[O-])cc2[N+](=O)[O-])cc1
inactive: dose: 50.0 mg/kg/injection, schedule: Q01DX009 (ip), vehicle: gum acacia 99 % of control | dose: 50.0 mg/kg/injection, schedule: Q04DX003 (ip), vehicle: gum acacia 100 % of control | dose: 100.0 mg/kg/injection, schedule: Q01DX009 (ip), vehicle: gum acacia 94 % of control | dose: 100.0 mg/kg/injection, schedule: Q04DX003 (ip), vehicle: gum acacia 101 % of control | dose: 200.0 mg/kg/injection, schedule: Q01DX009 (ip), vehicle: gum acacia 94 % of control | dose: 200.0 mg/kg/injection, schedule: Q04DX003 (ip), vehicle: gum acacia 98 % of control

[CH3][Ga]([CH3])[O]c1ccccc1C=O
inactive: dose: 1.5 mg/kg/injection, schedule: Q01DX009 (ip), vehicle: DMSO 97 % of control | dose: 1.5 mg/kg/injection, schedule: Q04DX003 (ip), vehicle: DMSO 107 % of control | dose: 3.0 mg/kg/injection, schedule: Q01DX009 (ip), vehicle: DMSO 97 % of control | dose: 3.0 mg/kg/injection, schedule: Q04DX003 (ip), vehicle: DMSO 94 % of control | dose: 6.0 mg/kg/injection, schedule: Q01DX009 (ip), vehicle: DMSO 108 % of control | dose: 6.0 mg/kg/injection, schedule: Q04DX003 (ip), vehicle: DMSO 102 % of control

OCc1cscc1-c1cscc1CO
inactive: dose: 100.0 mg/kg/injection, schedule: Q01DX001 (ip), vehicle: saline with Tween-80 97 % of control | dose: 200.0 mg/kg/injection, schedule: Q01DX001 (ip), vehicle: saline with Tween-80 111 % of control | dose: 400.0 mg/kg/injection, schedule: Q01DX001 (ip), vehicle: saline with Tween-80 93 % of control

CCOC(=O)c1cnc(N(C)CC(=O)O)[nH]c1=O
inactive: [1] 94 % of control | [2] 94 % of control | [3] 107 % of control

CC(C)(C)C(Br)CBr (configuration not stated)
inactive: dose: 50.0 mg/kg/injection, schedule: Q01DX009 (ip), vehicle: saline with Tween-80 101 % of control | [4] 101 % of control | [5] 97 % of control

Fc1cccc(/C=C2/c3cc(Cl)ccc3-c3c(Cl)cc(Cl)cc32)c1
inactive: [6] 93 % of control | [7] 88 % of control | [8] 91 % of control | [9] 91 % of control | [10] 89 % of control | [11] 93 % of control | [12] 88 % of control | [13] 96 % of control | [14] 88 % of control

Cc1cc(N2C(=O)CSC2=S)ccc1Br
inactive: [4] 104 % of control | dose: 100.0 mg/kg/injection, schedule: Q04DX003 (ip), vehicle: saline with Tween-80 96 % of control | [5] 93 % of control | dose: 200.0 mg/kg/injection, schedule: Q04DX003 (ip), vehicle: saline with Tween-80 93 % of control | dose: 400.0 mg/kg/injection, schedule: Q04DX003 (ip), vehicle: saline with Tween-80 104 % of control

Cc1cccc(OCCOC(=O)Nc2ccccc2F)c1
inactive: [7] 103 % of control | [10] 93 % of control | [13] 106 % of control

Cc1ccc(NC(=O)N(C)N=O)cc1
inactive: dose: 17.7 mg/kg/injection, schedule: Q01DX009 (ip), vehicle: carboxymethylcellulose (CMC) 118 % of control | dose: 26.6 mg/kg/injection, schedule: Q01DX009 (ip), vehicle: carboxymethylcellulose (CMC) 117 % of control | dose: 40.0 mg/kg/injection, schedule: Q01DX009 (ip), vehicle: carboxymethylcellulose (CMC) 120 % of control | dose: 50.0 mg/kg/injection, schedule: Q01DX001 (ip), vehicle: Klucel (hydroxypropylcellulose) (HPC) 119 % of control | dose: 60.0 mg/kg/injection, schedule: Q01DX009 (ip), vehicle: carboxymethylcellulose (CMC) 88 % of control | dose: 89.0 mg/kg/injection, schedule: Q01DX001 (ip), vehicle: carboxymethylcellulose (CMC) 107 % of control | [6] 111 % of control | dose: 100.0 mg/kg/injection, schedule: Q01DX001 (ip), vehicle: carboxymethylcellulose (CMC) 116 % of control | dose: 133.0 mg/kg/injection, schedule: Q01DX001 (ip), vehicle: carboxymethylcellulose (CMC) 122 % of control | [9] 114 % of control | [12] 114 % of control

CCOc1cc(N2CCOCC2)c(OCC)cc1N
inactive: dose: 6.0 mg/kg/injection, schedule: Q01DX009 (ip), vehicle: saline 103 % of control | dose: 12.0 mg/kg/injection, schedule: Q01DX009 (ip), vehicle: saline 100 % of control | dose: 12.0 mg/kg/injection, schedule: Q04DX003 (ip), vehicle: other 100 % of control | dose: 25.0 mg/kg/injection, schedule: Q01DX009 (ip), vehicle: saline 94 % of control | dose: 25.0 mg/kg/injection, schedule: Q04DX003 (ip), vehicle: other 95 % of control

COC(=O)C(=O)CC(=O)c1cccc(C)c1
inactive: [1] 100 % of control | [2] 103 % of control | [3] 92 % of control

CON(C)S(=O)(=O)c1ccccc1
inactive: [8] 103 % of control | [11] 97 % of control | [14] 95 % of control

CCOC=NC1=C(C#N)CN(Cc2ccccc2)CC1
inactive: [1] 93 % of control | [2] 93 % of control | [3] 90 % of control

O=c1[nH]cnc2c1ncn2C1OCC(O)C(O)C1O (configuration not stated)
inactive: dose: 50.0 mg/kg/injection, schedule: Q01DX001 (ip), vehicle: saline 105 % of control | [15] 101 % of control and 105 % of control | [16] 119 % of control and 109 % of control | [17] 103 % of control

N#CC(C#N)=NNc1cccc(Cl)c1Cl
inactive: dose: 5.0 mg/kg/injection, schedule: Q01DX009 (ip), vehicle: saline with Tween-80 90 % of control | dose: 10.0 mg/kg/injection, schedule: Q01DX009 (ip), vehicle: saline with Tween-80 88 % of control

CCC(=O)C(c1ccccc1)(c1ccccc1)c1ccccc1
inactive: dose: 100.0 mg/kg/injection, schedule: Q04DX002 (ip), vehicle: other 95 % of control | dose: 200.0 mg/kg/injection, schedule: Q04DX002 (ip), vehicle: other 100 % of control

O=C(O)CCOc1ccccc1Cl
inactive: [4] 91 % of control | [1] 98 % of control | [5] 95 % of control | [2] 95 % of control | dose: 400.0 mg/kg/injection, schedule: Q01DX009 (ip), vehicle: saline with Tween-80 93 % of control | [3] 106 % of control

CCCCCCCCCCCCCCCC1=C(O)c2ccccc2C(=O)C1=O
inactive: [15] 112 % of control | [16] 101 % of control | [17] 103 % of control

CC(C)COC1CCCC(Oc2ccccc2)O1 (configuration not stated)
inactive: dose: 55.0 mg/kg/injection, schedule: Q01DX Z (ip), vehicle: methylcellulose (MC) 92 % of control | dose: 83.0 mg/kg/injection, schedule: Q01DX Z (ip), vehicle: methylcellulose (MC) 100 % of control | dose: 125.0 mg/kg/injection, schedule: Q01DX Z (ip), vehicle: methylcellulose (MC) 91 % of control

O=C1CSc2ccccc2N1CCN1C(=O)CSc2ccccc21
inactive: dose: 50.0 mg/kg/injection, schedule: Q04DX002 (ip), vehicle: saline with Tween-80 93 % of control | dose: 100.0 mg/kg/injection, schedule: Q04DX002 (ip), vehicle: saline with Tween-80 90 % of control | dose: 200.0 mg/kg/injection, schedule: Q04DX002 (ip), vehicle: saline with Tween-80 101 % of control | dose: 400.0 mg/kg/injection, schedule: Q04DX002 (ip), vehicle: saline with Tween-80 86 % of control
